Measured values as given in patent US9950987B2, “Aspirin derivatives and uses thereof” (North Carolina Agricultural and Technical State University, priority 2012, dated 2018).
“Also recorded” adds a separate entry of the source.

Experiments:
[1] = tested on: HCT-116 human colon cancer cells; experiment: MTT growth inhibition assay, HCT-116; format: cell-based; conditions: 48 h, relative to control
Protocol: (§1) The effects of the aspirin-stilbene derivative conjugates compared to standards were evaluated based on the inhibition of growth of HCT-116 and HT-29 human colon cancer cells. Cells were plated in 96-well plates in growth medium with 10% FBS. After 24 h, the medium was replaced with fresh medium containing test agent with desired final concentration (20, 30, 40, 50, and 60 μM), and the cells were incubated for 48 h. Viable cells were analyzed using the MTT assay, and the results are shown (FIG. 1) relative to control. Each value represents the mean±S.D. (n=8). FIG. 1, Panel A summarizes the results for aspirin (As), Res, RAS, RAS-1, and the combination of resveratrol and aspirin (Res+As). […] FIG. 1, Panel B summarizes the results for As, MRes, MRAS and the combination of MRes and aspirin (MRes+As). […] FIG. 1, Panel C summarizes the results for As, Pt, PAS, and the combination of pterostilbene and aspirin (Pt+As).
(§2) The effects of As, 6-shogaol (6-s), SAS and the combination of 6-shogaol and aspirin (6-s+As) on the growth of HCT-116 and HT-29 human colon cancer cells and H1299 human lung cancer cells were measured. Cells were plated in 96-well plates in growth medium with 10% FBS. After 24 h, the medium was replaced with fresh medium containing test agent with desired final concentration (5, 7.5, 10, 15, and 20 μM), and the cells were incubated for 48 h. Viable cells were analyzed using the MTT assay, and the results are shown relative to control (FIG. 2).
as §2, with “6-gingerol (6g), GAS,” for “6-shogaol (6-s), SAS”, “6-gingerol” for “6-shogaol”, “(6g+As)” for “(6-s+As)”, “(20, 40, 60, 80,” for “(5, 7.5, 10, 15,”, “100” for “20”, “3).” for “2).”

[2] = tested on: HT-29 human colon cancer cells; experiment: MTT growth inhibition assay, HT-29; format: cell-based; conditions: 48 h, relative to control
Protocol: as §1, §2
as §2, with “6-gingerol (6g), GAS,” for “6-shogaol (6-s), SAS”, “6-gingerol” for “6-shogaol”, “(6g+As)” for “(6-s+As)”, “(20, 40, 60, 80,” for “(5, 7.5, 10, 15,”, “100” for “20”, “3).” for “2).”

[3] = tested on: human colon cancer cells (HCT-116)
[4] = tested on: human colon cancer cells (HT-29)
[5] = tested on: H1299 human lung cancer cells; experiment: MTT growth inhibition assay, H1299; format: cell-based; conditions: 48 h, relative to control
Protocol: as §2
as §2, with “6-gingerol (6g), GAS,” for “6-shogaol (6-s), SAS”, “6-gingerol” for “6-shogaol”, “(6g+As)” for “(6-s+As)”, “(20, 40, 60, 80,” for “(5, 7.5, 10, 15,”, “100” for “20”, “3).” for “2).”

[6] = Urinary metabolic profile in mice (LC/MS); format: in vivo; conditions: oral gavage 200 mg/kg, 24 h urine, FIG. 5
Protocol: The metabolic profile of Pt using LC/MS 23 was investigated. PAS was administered to mice (n=5) by oral gavage (200 mg/kg), and urine samples were collected in metabolism cages for 24 h after administration of vehicle (control mice) or PAS. LC/MS methods were developed to analyze PAS, pterostilbene, and aspirin. LC chromatograms of urine samples collected from PAS-treated mice obtained using positive APCI-MS interface (FIG. 5): (A) before and (B) after enzymatic hydrolysis (treated with β-glucuronidase and sulfatase); using negative ESI-MS interface: (C) before and (D) after enzymatic hydrolysis.
PAS had the highest response under positive APCI/MS mode, and aspirin and salicylic acid had the highest response under negative ESI/MS mode. Both positive APCI/MS and negative ESI/MS modes are sensitive to pterostilbene. However, aspirin and salicylic acid are hardly detectable under positive APCI/MS mode, and PAS is not detectable under negative ESI/MS mode. Therefore, APCI/MS positive mode was used to analyze PAS, pterostilbene, and their metabolites, and ESI/MS negative mode was used to analyze aspirin, pterostilbene, and their metabolites.

For “mono-methylated resveratrol aspirinate [MRAS]”, which growth inhibitory effect ([1]; 20, 30, 40, 50, 60 μM, FIG. 1) is on record?
Its growth inhibitory effect is “weaker growth inhibitory effects than MRes and the combination of MRes and aspirin (1:1)”.

And the growth inhibitory effect ([2]; 20, 30, 40, 50, 60 μM, FIG. 1)?
Its growth inhibitory effect is “weaker growth inhibitory effects than MRes and the combination of MRes and aspirin (1:1)”.

For CC(=O)Oc1ccccc1C(=O)Oc1ccc(/C=C/c2cc(O)cc(O)c2)cc1 [RAS, 4′-aspirinated resveratrol], which growth inhibitory effect ([1]; 20, 30, 40, 50, 60 μM, FIG. 1) is on record?
Its growth inhibitory effect is “stronger growth inhibitory effect than resveratrol and aspirin alone, and stronger than the combination of resveratrol and aspirin (1:1); also recorded: much stronger growth inhibitory effects than RAS-1, MRAS, and PAS”.

And the growth inhibitory effect ([2]; 20, 30, 40, 50, 60 μM, FIG. 1)?
Its growth inhibitory effect is “stronger growth inhibitory effect than resveratrol and aspirin alone, and stronger than the combination of resveratrol and aspirin (1:1); also recorded: much stronger growth inhibitory effects than RAS-1, MRAS, and PAS”.

What about the hydrolysis in cells [3] of the same compound?
The hydrolysis in cells was “hydrolyzed in human colon cancer cells (HCT-116 and HT-29) to generate resveratrol and aspirin”.

What about the hydrolysis in cells [4] of the same compound?
Its hydrolysis in cells is “hydrolyzed in human colon cancer cells (HCT-116 and HT-29) to generate resveratrol and aspirin”.

Which results are given for CCCCCC(O)CC(=O)CCc1ccc(OC(=O)c2ccccc2OC(C)=O)c(OC)c1 (stereo not shown) [GAS, 6-gingerol aspirinate]?
growth inhibitory effect ([1]; 20, 40, 60, 80, 100 μM, FIG. 3): much stronger growth inhibitory effect than 6-gingerol and aspirin alone, as well as the combination of 6-gingerol and aspirin (1:1); growth inhibitory effect ([2]; 20, 40, 60, 80, 100 μM, FIG. 3): much stronger growth inhibitory effect than 6-gingerol and aspirin alone, as well as the combination of 6-gingerol and aspirin (1:1); growth inhibitory effect ([5]; 20, 40, 60, 80, 100 μM, FIG. 3): much stronger growth inhibitory effect than 6-gingerol and aspirin alone, as well as the combination of 6-gingerol and aspirin (1:1)

Which results are given for COc1cc(C=Cc2ccc(OC(=O)c3ccccc3OC(C)=O)cc2)cc(OC)c1 [PAS, pterostilbene aspirinate]?
growth inhibitory effect ([1]; 20, 30, 40, 50, 60 μM, FIG. 1): weaker growth inhibitory effects than pterostilbene and the combination of pterostilbene and aspirin (1:1); growth inhibitory effect ([2]; 20, 30, 40, 50, 60 μM, FIG. 1): weaker growth inhibitory effects than pterostilbene and the combination of pterostilbene and aspirin (1:1); detection of parent compound or deacetylated metabolites in urine [6]: neither PAS nor its deacetylated metabolites were detected; hydrolysis in vivo (urinary metabolites) [6]: hydrolyzed in mice to generate metabolites of aspirin and pterostilbene

For CCCCC/C=C/C(=O)CCc1ccc(OC(=O)c2ccccc2OC(C)=O)c(OC)c1 [SAS, 6-shogaol aspirinate], which growth inhibitory effect ([1]; 5, 7.5, 10, 15, 20 μM, FIG. 2) is on record?
Its growth inhibitory effect is “stronger growth inhibitory effect than aspirin alone, but less effective than 6-shogaol alone and the combination of 6-shogaol and aspirin (1:1)”.

And the growth inhibitory effect ([2]; 5, 7.5, 10, 15, 20 μM, FIG. 2)?
The growth inhibitory effect was “stronger growth inhibitory effect than aspirin alone, but less effective than 6-shogaol alone and the combination of 6-shogaol and aspirin (1:1)”.

And the growth inhibitory effect ([5]; 5, 7.5, 10, 15, 20 μM, FIG. 2)?
The growth inhibitory effect was “stronger growth inhibitory effect than aspirin alone, but less effective than 6-shogaol alone and the combination of 6-shogaol and aspirin (1:1)”.
